Source: ChEMBL document CHEMBL3991950, “Imidazolidinedione derivatives” (2011)
Active and inactive are the calls of the source.

Legend:
Callithrix jacchus [1] = test: Effect on animal postures in marmoset at 1 and 3 mg/kg, po dosed 2 hrs before test and measured over 2 mins post dose; assay type: ADME, organism-based; conditions: in vivo
Callithrix jacchus [2] = test: Sedative or hypnotic effect in marmoset assessed as reduction in number of animal jumps at 1 and 3 mg/kg, po dosed 2 hrs before test and measured over 2 mins post dose; assay type: functional, organism-based
Mus musculus [3] = organism: Mus musculus; test: (§1) Modulation activity at Kv3 channel-mediated firing activity of parvalbumin-positive interneurons isolated form somatosensory cortex of transgenic [CB6-Tg (Gad1-EGFP) G42Zjh/J] mouse assessed as reduction in 0.5 mM TEA-induced action potential half-width at 10 uM incubated for 1 hr at resting potential of -80 mV by electrophysiology assay
Rattus norvegicus [4] = test: Increase in threshold for tonic hindlimb extensor seizures in CD rat model of electroshock seizure at 30 mg/kg, po relative to untreated control; assay type: functional
[5] = biological target: T1, Voltage-gated potassium channel KCNC2 (Homo sapiens) (UniProt Q96PR1); test: Modulation activity at human recombinant Kv3.2 expressed in CHOK1 cells assessed as potentiation of whole-cell currents at 6.3 uM at -70 mV holding potential incubated for 3 mins by lonWorks Quattro system based electrophysiology assay
T1 sequence (whole entry): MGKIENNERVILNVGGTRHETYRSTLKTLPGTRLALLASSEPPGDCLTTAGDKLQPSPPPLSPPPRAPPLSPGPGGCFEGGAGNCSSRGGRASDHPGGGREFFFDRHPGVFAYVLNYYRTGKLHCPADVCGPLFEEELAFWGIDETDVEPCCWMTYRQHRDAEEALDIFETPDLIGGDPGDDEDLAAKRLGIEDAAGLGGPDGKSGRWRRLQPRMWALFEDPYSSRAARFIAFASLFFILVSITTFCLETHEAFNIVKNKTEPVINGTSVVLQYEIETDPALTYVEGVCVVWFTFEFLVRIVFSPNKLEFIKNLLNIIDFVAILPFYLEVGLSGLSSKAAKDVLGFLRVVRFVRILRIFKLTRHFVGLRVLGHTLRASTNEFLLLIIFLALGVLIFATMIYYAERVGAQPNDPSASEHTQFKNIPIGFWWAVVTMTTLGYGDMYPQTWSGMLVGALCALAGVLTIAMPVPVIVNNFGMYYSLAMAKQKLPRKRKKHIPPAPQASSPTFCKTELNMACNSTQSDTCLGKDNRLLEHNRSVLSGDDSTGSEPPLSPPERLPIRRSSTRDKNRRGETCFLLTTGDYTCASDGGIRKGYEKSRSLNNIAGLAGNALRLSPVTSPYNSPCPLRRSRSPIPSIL

[6] = biological target: T1, Voltage-gated potassium channel KCNC2 (Homo sapiens); test: Positive modulation activity at human recombinant Kv3.2 expressed in CHOK1 cells assessed as effect on activation time at -70 mV holding potential incubated for 3 mins by lonWorks Quattro system based electrophysiology assay (reference value: 7.1 ms); assay type: cell-based
[7] = biological target: T1, Voltage-gated potassium channel KCNC2 (Homo sapiens); test: Modulation activity at human recombinant Kv3.2 expressed in CHOK1 cells assessed as potentiation of whole-cell currents at 25 uM at -70 mV holding potential incubated for 3 mins by lonWorks Quattro system based electrophysiology assay
[8] = biological target: T1, Voltage-gated potassium channel KCNC2 (Homo sapiens); test: Modulation activity at human recombinant Kv3.2 expressed in CHOK1 cells assessed as potentiation of whole-cell currents by measuring activation time at 6.25 uM at -70 mV holding potential incubated for 3 mins by lonWorks Quattro system based electrophysiology assay (reference value: 7.1 ms)
Mus musculus [9] = test: Reduction in amphetamine-induced hyperactivity in CD1 mouse assessed as reduction in amphetamine-induced increase in total distance travelled at 30 mg/kg, po pretreated with compound 30 mins before amphetamine challenge and measured over 60 mins post amphetamine challenge; assay type: functional, organism-based
Mus musculus [10] = test: Reduction in amphetamine-induced hyperactivity in CD1 mouse assessed as amphetamine-induced increase in total distance travelled at 10 mg/kg, po pretreated with compound 30 mins before amphetamine challenge and measured over 60 mins post amphetamine challenge (reference value: 16304 +/- 3309 cm); assay type: functional
Rattus norvegicus [11] = test: Increase in threshold for tonic hindlimb extensor seizures in CD rat model of electroshock seizure at 60 mg/kg, po relative to untreated control; assay type: functional
Mus musculus [12] = organism: Mus musculus; test: as §1, with “1” for “10”
Mus musculus [13] = test: Reduction in amphetamine-induced hyperactivity in CD1 mouse assessed as reduction in amphetamine-induced increase in total distance travelled at 60 mg/kg, po pretreated with compound 30 mins before amphetamine challenge and measured over 60 mins post amphetamine challenge; assay type: functional, organism-based
[14] = biological target: T2, Voltage-gated potassium channel KCNC1 (Mus musculus) (UniProt P15388); test: Modulation activity at Kv3.1 channel-mediated potassium currents in neurons isolated from medial nucleus of trapezoid body in CBA/Ca mouse assessed as reversal of TEA-induced reduction in voltage steps to +40 mV-evoked amplitude of outward high voltage-activated potassium currents at 10 uM at resting potential of -60 mV incubated for 5 mins by electrophysiology assay
T2 sequence (whole entry): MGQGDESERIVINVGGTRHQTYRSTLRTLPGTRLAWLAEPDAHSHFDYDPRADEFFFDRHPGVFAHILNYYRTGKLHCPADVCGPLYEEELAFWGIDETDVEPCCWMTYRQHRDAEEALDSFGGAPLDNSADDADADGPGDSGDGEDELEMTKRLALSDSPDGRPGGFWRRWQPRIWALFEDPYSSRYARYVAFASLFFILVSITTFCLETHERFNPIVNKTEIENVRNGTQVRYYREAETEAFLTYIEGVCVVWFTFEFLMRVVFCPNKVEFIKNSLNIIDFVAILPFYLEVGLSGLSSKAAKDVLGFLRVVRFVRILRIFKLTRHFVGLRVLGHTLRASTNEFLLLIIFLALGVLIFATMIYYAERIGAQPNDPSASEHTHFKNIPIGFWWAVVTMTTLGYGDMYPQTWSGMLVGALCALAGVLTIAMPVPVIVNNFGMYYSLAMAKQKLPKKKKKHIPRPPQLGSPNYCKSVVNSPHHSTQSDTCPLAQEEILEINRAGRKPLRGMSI

[15] = biological target: T1, Voltage-gated potassium channel KCNC2 (Homo sapiens); test: Modulation activity at human recombinant Kv3.2 expressed in CHOK1 cells assessed as potentiation of whole-cell currents by measuring activation time at 0.8 uM at -70 mV holding potential incubated for 3 mins by lonWorks Quattro system based electrophysiology assay (reference value: 7.1 ms)
[16] = biological target: T1, Voltage-gated potassium channel KCNC2 (Homo sapiens); test: Modulation activity at human recombinant Kv3.2 expressed in CHOK1 cells assessed as potentiation of whole-cell currents by measuring activation time at 3.1 uM at -70 mV holding potential incubated for 3 mins by lonWorks Quattro system based electrophysiology assay (reference value: 7.1 ms)
Mus musculus [17] = test: Reduction in amphetamine-induced hyperactivity in CD1 mouse assessed as amphetamine-induced increase in total distance travelled at 3 mg/kg, ip pretreated with compound 30 mins before amphetamine challenge and measured over 60 mins post amphetamine challenge (reference value: 16304 +/- 3309 cm); assay type: functional
Mus musculus [18] = test: Reduction in amphetamine-induced hyperactivity in CD1 mouse assessed as reduction in amphetamine-induced increase in total distance travelled at 3 mg/kg, ip pretreated with compound 30 mins before amphetamine challenge and measured over 60 mins post amphetamine challenge; assay type: functional, organism-based
[19] = biological target: T1, Voltage-gated potassium channel KCNC2 (Homo sapiens); test: Modulation activity at human recombinant Kv3.2 expressed in CHOK1 cells assessed as potentiation of whole-cell currents by measuring activation time at 0.2 uM at -70 mV holding potential incubated for 3 mins by lonWorks Quattro system based electrophysiology assay
[20] = biological target: T1, Voltage-gated potassium channel KCNC2 (Homo sapiens); test: Negative modulation activity at human recombinant Kv3.2 expressed in CHOK1 cells assessed as effect on activation time at -70 mV holding potential incubated for 3 mins by lonWorks Quattro system based electrophysiology assay; assay type: cell-based
Rattus norvegicus [21] = test: Increase in threshold for tonic hindlimb extensor seizures in CD rat model of electroshock seizure at 300 mg/kg, po relative to untreated control; assay type: functional
Callithrix jacchus [22] = test: Antipsychotic-like activity in common marmoset assessed as induction of increase in absolute power in delta band at 3 mg/kg, po measured between 30 and 120 mins by electroencephalography analysis; assay type: functional, organism-based
Callithrix jacchus [23] = test: Effect on absolute power in alpha band in common marmoset at 0.3 to 3 mg/kg, po by electroencephalography analysis; assay type: ADME, organism-based; conditions: in vivo
Callithrix jacchus [24] = test: Antipsychotic-like activity in common marmoset assessed as induction of reduction in power in beta band at 1 mg/kg, po measured at 30 mins by electroencephalography analysis; assay type: functional, organism-based
Callithrix jacchus [25] = test: Antipsychotic-like activity in common marmoset assessed as induction of increase in absolute power in delta band at 1 mg/kg, po measured at 30 mins by electroencephalography analysis; assay type: functional, organism-based
[26] = biological target: T1, Voltage-gated potassium channel KCNC2 (Homo sapiens); test: Modulation activity at human recombinant Kv3.2 expressed in CHOK1 cells assessed as potentiation of whole-cell currents by measuring activation time at 12.5 uM at -70 mV holding potential incubated for 3 mins by lonWorks Quattro system based electrophysiology assay (reference value: 7.1 ms)
Callithrix jacchus [27] = test: Antipsychotic-like activity in common marmoset assessed as induction of increase in theta band power at 3 mg/kg, po measured at 60 mins by electroencephalography analysis; assay type: functional, organism-based
[28] = biological target: T1, Voltage-gated potassium channel KCNC2 (Homo sapiens); test: Modulation activity at human recombinant Kv3.2 expressed in CHOK1 cells assessed as potentiation of whole-cell currents by measuring activation time at 0.4 uM at -70 mV holding potential incubated for 3 mins by lonWorks Quattro system based electrophysiology assay (reference value: 7.1 ms)

Structure (SMILES): CC[C@H]1NC(=O)N(c2ccc(Oc3ccc(C)c(OC)c3)nc2)C1=O
- Activity (Callithrix jacchus [1]): Non-Toxic
- Activity (Callithrix jacchus [2]): Active
- inhibition (Mus musculus [3]): 36%
- Activity (Rattus norvegicus [4]): 91%
- Activity [5]: Active
- Activity [6]: Active
- Activity [7]: Active
- TIME [8]: 2.75e-06 h
- Activity (Mus musculus [9]): Active
- Activity (Mus musculus [10]): 15267 cm
- Activity (Rattus norvegicus [11]): 218%
- inhibition (Mus musculus [12]): 24%
- Activity (Mus musculus [13]): Active
- Activity [14]: Active

Structure (SMILES): CC[C@H]1NC(=O)N(c2ccc(Oc3ccc(C#N)c(C(C)C)c3)nc2)C1=O
- TIME [15]: 2.56e-06 h
- Activity [6]: Active

Structure (SMILES): CC[C@H]1NC(=O)N(c2ccc(Oc3ccc(C#N)c(OC(F)(F)F)c3)nc2)C1=O
- TIME [16]: 2.89e-06 h

Structure (SMILES): CC[C@H]1NC(=O)N(c2ccc(Oc3ccc(C#N)c(OC(C)C)c3)nc2)C1=O
- TIME [16]: 2.69e-06 h

Structure (SMILES): CN1CCN(C2=Nc3cc(Cl)ccc3Nc3ccccc32)CC1 [CLOZAPINE]
- Activity (Mus musculus [17]): 932 cm
- Activity (Mus musculus [18]): Active

Structure (SMILES): CC[C@H]1NC(=O)N(c2ccc(Oc3ccc(C#N)c(C4CC4)c3)nc2)C1=O
- Activity [6]: Active
- TIME [16]: 2.11e-06 h

Structure (SMILES): CCc1cc(Oc2ccc(N3C(=O)N[C@H](CC)C3=O)cn2)ccc1C#N
- TIME [16]: 2.28e-06 h

Structure (SMILES): CC[C@H]1NC(=O)N(c2ccc(Oc3ccc(C#N)cc3C(C)(C)C)nc2)C1=O
- TIME [19]: 6.39e-06 h
- inhibition [20]: Active

Structure (SMILES): CCCC(CCC)C(=O)[O-].[Na+] [VALPROATE SODIUM]
- Activity (Rattus norvegicus [21]): 258%

Structure (SMILES): CC[C@@]1(C)NC(=O)N(c2ccc(Oc3ccc(C)c(OC)c3)nc2)C1=O
- Activity (Callithrix jacchus [22]): Active
- Activity (Callithrix jacchus [23]): Non-Toxic
- Activity (Callithrix jacchus [24]): Active
- Activity (Callithrix jacchus [25]): Active
- TIME [26]: 2.03e-06 h
- Activity [6]: Active
- Activity (Callithrix jacchus [27]): Active

Structure (SMILES): CC[C@H]1NC(=O)N(c2ccc(Oc3ccc(C#N)cc3C3CC3)nc2)C1=O
- Activity [6]: Active
- TIME [16]: 3.61e-06 h

Structure (SMILES): CC1(C)NC(=O)N(c2ccc(Oc3cccc4c3C3(CC3)CO4)nc2)C1=O
- inhibition [20]: Active
- TIME [28]: 5.36e-06 h
